Molecular target: T1, AR (androgen receptor) protein in VCaP cells (Homo sapiens, UniProt P10275)
T1 construct: endogenous in cells; host or cells: VCaP cells
T1 sequence (P10275 1-920): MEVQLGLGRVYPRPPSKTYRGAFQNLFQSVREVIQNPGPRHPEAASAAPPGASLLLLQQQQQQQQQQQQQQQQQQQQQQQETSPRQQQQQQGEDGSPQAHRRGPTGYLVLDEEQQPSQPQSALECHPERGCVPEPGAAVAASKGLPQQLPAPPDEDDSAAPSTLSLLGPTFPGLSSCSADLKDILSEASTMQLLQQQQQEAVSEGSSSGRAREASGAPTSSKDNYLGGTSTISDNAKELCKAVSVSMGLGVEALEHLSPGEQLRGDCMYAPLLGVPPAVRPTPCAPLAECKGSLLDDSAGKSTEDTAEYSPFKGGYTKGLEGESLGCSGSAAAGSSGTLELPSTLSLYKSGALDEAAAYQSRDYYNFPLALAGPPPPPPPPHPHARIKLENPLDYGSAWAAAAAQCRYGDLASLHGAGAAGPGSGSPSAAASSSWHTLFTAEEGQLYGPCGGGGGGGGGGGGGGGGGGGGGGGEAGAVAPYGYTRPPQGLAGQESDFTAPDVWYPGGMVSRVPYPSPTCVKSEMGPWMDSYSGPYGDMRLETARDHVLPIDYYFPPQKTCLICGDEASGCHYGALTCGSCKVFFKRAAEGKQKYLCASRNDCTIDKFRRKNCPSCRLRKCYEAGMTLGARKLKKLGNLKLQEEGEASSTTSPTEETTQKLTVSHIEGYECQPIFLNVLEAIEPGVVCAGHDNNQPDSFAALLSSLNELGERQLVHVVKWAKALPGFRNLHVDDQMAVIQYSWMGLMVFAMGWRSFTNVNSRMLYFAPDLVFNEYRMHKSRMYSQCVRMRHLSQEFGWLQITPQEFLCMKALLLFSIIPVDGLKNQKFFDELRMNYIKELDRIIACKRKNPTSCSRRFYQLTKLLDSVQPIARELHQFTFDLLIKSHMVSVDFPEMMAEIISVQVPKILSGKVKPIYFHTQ
Assay: VCAP AR Degradation Assay
Type: cell-based
Conditions: 24 h, AR ELISA; for DC50: concentration of compound when AR level = 50% of DMSO control; for remaining activity at up to 5 µM: top concentration 5 μM, read-out: Y (lowest measured AR level normalized to DMSO control, AR degradation efficiency)
Procedure: VCAP AR Degradation Assay. Test compounds were pre-dispensed into a Corning CellBind 96-well clear bottom plate (Cat #3300) using an acoustic dispenser to make a 10-point concentration series at 1:3 dilution for each compound. The final top concentration of each compound was 5 μM. DMSO at a final concentration of 0.1% was used as a control. VCaP cells cultured in DMEM with 8% fetal bovine serum (FBS) were seeded at 50K cells per well in a 200 μL volume into the compound plate and incubated at 37° C. in a CO2 incubator for 24 h. The medium was carefully removed from the cells and the plate was placed on ice. One hundred μL of ice-cold 1× cell lysis buffer from Cell Signaling Technologies (Cat #9803) was added to each well of the cells and the plate was incubated at 4° C. on a shaker for 1 h. Fifteen μL of cell lysate was used for AR ELISA detection using a PathScan Total Sandwich AR ELISA kit (Cell Signaling Technology, Cat #12580). AR levels in compound-treated wells were normalized to that of DMSO control and expressed as percent of control (PoC) (y). A Four Parameter Logistic Model (Sigmoidal Dose-Response Model) was used to determine the compound's DC50, and EC50, using the following equation: y=(A+((B−A)/(1+((C/x)^D)))) • A=YMin (lowest AR level normalized to DMSO control in response to compound treatment, as determined by curve fit) • B=YMax (maximum AR level as determined by curve fit) • C=EC50 • D=Hill Slope • x=compound concentration • EC50=the concentration of compound when y=(YMax−YMin)/2 • DC50=the concentration of the compound when y=50% of DMSO control (50% AR degradation) • y=AR protein level normalized to DMSO control
The lowest measured AR level normalized to DMSO control in response to compound treatment, termed Y value, was used to characterize the compound-mediated AR degradation efficiency.

Structure (SMILES) | DC50 [nM] | remaining activity at up to 5 µM [%]
C[C@@H]1C[C@H](OCC[C@H]2CC[C@H](N3C(=S)N(c4ccc(C#N)c(C(F)(F)F)c4)C(=O)C3(C)C)CC2)C[C@H](C)N1CC(=O)Nc1cccc2c(C3CCC(=O)NC3=O)nn(C)c12 (stereo partly drawn) [Cmpd 26, 2-((2R,4r,6S)-4-(2-((trans)-4-(3-(4-Cyano-3-(trifluoromethyl)phenyl)-5,5-dimethyl-4-oxo-2-thioxoimidazolidin-1-yl)cyclohexyl)ethoxy)-2,6-dimethylpiperidin-1-yl)-N-(3-(2,6-dioxopiperidin-3-yl)-1-methyl-1H-indazol-7-yl)acetamide] | 5 to 20 | 0 to 25
C[C@@H]1C[C@H](OCCO[C@H]2CC[C@H](N3C(=S)N(c4ccc(C#N)c(C(F)(F)F)c4)C(=O)C3(C)C)CC2)C[C@H](C)N1CC(=O)Nc1cccc2c(C3CCC(=O)NC3=O)nn(C)c12 (stereo partly drawn) [Cmpd 27, 2-((2R,4r,6S)-4-(2-(((trans)-4-(3-(4-Cyano-3-(trifluoromethyl)phenyl)-5,5-dimethyl-4-oxo-2-thioxoimidazolidin-1-yl)cyclohexyl)oxy)ethoxy)-2,6-dimethylpiperidin-1-yl)-N-(3-(2,6-dioxopiperidin-3-yl)-1-methyl-1H-indazol-7-yl)acetamide] | 2 to 5 | 25 to 30
Cn1nc(C2CCC(=O)NC2=O)c2cccc(NC(=O)CN3CCC(CCO[C@H]4CC[C@H](N5C(=S)N(c6cnc(C#N)c(C(F)(F)F)c6)C(=O)C5(C)C)CC4)C(F)(F)C3)c21 (stereo partly drawn) [Cmpd 29, 2-(4-(2-(((trans)-4-(3-(6-Cyano-5-(trifluoromethyl)pyridin-3-yl)-5,5-dimethyl-4-oxo-2-thioxoimidazolidin-1-yl)cyclohexyl)oxy)ethyl)-3,3-difluoropiperidin-1-yl)-N-(3-(2,6-dioxopiperidin-3-yl)-1-methyl-1H-indazol-7-yl)acetamide] | < 2 | 0 to 25

The remaining lines, values ahead:

DC50 [nM] | remaining activity at up to 5 µM [%] | Structure (SMILES)
5 to 20 | 0 to 25 | C[C@@H]1C[C@H](OCCC[C@H]2CC[C@H](N3C(=S)N(c4cnc(C#N)c(C(F)(F)F)c4)C(=O)C3(C)C)CC2)C[C@H](C)N1CC(=O)Nc1cccc2c(C3CCC(=O)NC3=O)nn(C)c12 (stereo partly drawn) [Cmpd 24, 2-((2R,4r,6S)-4-(3-((trans)-4-(3-(6-Cyano-5-(trifluoromethyl)pyridin-3-yl)-5,5-dimethyl-4-oxo-2-thioxoimidazolidin-1-yl)cyclohexyl)propoxy)-2,6-dimethylpiperidin-1-yl)-N-(3-(2,6-dioxopiperidin-3-yl)-1-methyl-1H-indazol-7-yl)acetamide]
2 to 5 | 0 to 25 | C[C@@H]1C[C@H](OCC[C@H]2CC[C@H](N3C(=S)N(c4cnc(C#N)c(C(F)(F)F)c4)C(=O)C3(C)C)CC2)C[C@H](C)N1CC(=O)Nc1cccc2c(C3CCC(=O)NC3=O)nn(C)c12 (stereo partly drawn) [Cmpd 25, 2-((2R,4r,6S)-4-(2-((trans)-4-(3-(6-Cyano-5-(trifluoromethyl)pyridin-3-yl)-5,5-dimethyl-4-oxo-2-thioxoimidazolidin-1-yl)cyclohexyl)ethoxy)-2,6-dimethylpiperidin-1-yl)-N-(3-(2,6-dioxopiperidin-3-yl)-1-methyl-1H-indazol-7-yl)acetamide]
< 2 | 0 to 25 | C[C@@H]1C[C@H](OCCO[C@H]2CC[C@H](N3C(=S)N(c4cnc(C#N)c(C(F)(F)F)c4)C(=O)C3(C)C)CC2)C[C@H](C)N1CC(=O)Nc1cccc2c(C3CCC(=O)NC3=O)nn(C)c12 (stereo partly drawn) [Cmpd 28, 2-((2R,4r,6S)-4-(2-(((trans)-4-(3-(6-Cyano-5-(trifluoromethyl)pyridin-3-yl)-5,5-dimethyl-4-oxo-2-thioxoimidazolidin-1-yl)cyclohexyl)oxy)ethoxy)-2,6-dimethylpiperidin-1-yl)-N-(3-(2,6-dioxopiperidin-3-yl)-1-methyl-1H-indazol-7-yl)acetamide]

Source: patent US12227490B2, “Cereblon binding compounds, compositions thereof, and methods of treatment therewith” (Celgene Corporation, priority 2020, dated 2025)
